{"source": "patent US20260258025A1", "about": "“INHIBITORS OF TDP-43 AND TAU AGGREGATION” (Aquinnah Pharmaceuticals, inc., priority 2023, published 2026)", "note": "pIC50: −log10 of the molar value."}
{"tested_on": "tau stress granules", "assay": "SY5Y-tT1 tau arsenite assay (tau stress granules per cell)", "type": "cell-based", "details": "SY5Y-tT1 cells, 2 hours compound, 90 minutes arsenite, 50% reduction of granules per cell, read-out: IC50, Inhibitor Activity of Tau Stress Granules", "description": "Example 91: In Vitro Efficacy Assay of Exemplary Compounds—SY5Y-tT1 Tau Arsenite/Thapsigargin Assay\n• Before harvesting cells—checked to see if cells are ~80% confluency in their flask • 1. Aspirated growth media from flask. • 2. Added 4 mL of (0.25%) trypsin-EDTA (REF: 25200-056) • 3. Placed in 37° C. incubator for 5 minutes. • 4. Removed from incubator and added 11 mL growth media, washing any remaining cells adhered to the bottom of the flask. • 5. Transferred cell containing media to a 50 mL conical tube and spun for 5 minutes at 800 rpm. • 6. Aspirated supernatant and added 5 mL of growth media to cell pellet, triturating to make a homogenous cell solution. • 7. After counting cells, followed one of these plating paradigms: • (A) If treating with arsenite, plated cells at […] with tetracycline solution (5 mg/mL) added to cell solution at 1:5000 • (B) If treating with thapsigargin, plated cells at 4,000 cells/well with tetracycline solution (5 mg/mL) added to cell solution at 1:5000 • 8. Incubated at 37° C. for 48 hours.\n• Solubilized all compounds to 10 mM prior to making dilution plates • 1. To a 96-well U-bottom plate (Falcon Non-Tissue Culture Treated Plates REF: 351177) added 120 μL growth media to all 96 wells, with an additional 58.2 μL to row A. • 2. Added 1.8 μL of 10 mM compound stock to wells A1-11, adding 1.8 μL of 10 mM PERKi stock (Selleck Chemistry GSK2606414 Cat No. S7307) as the control. • 3. Serially diluted 60 μL from row A down through each row, finishing with 180 μL total volume in row H. • 4. Transferred 12.5 μL of each dilution plate well to the correlating wells in cell plate, being careful not to touch cells adhered to bottom of the plate. • 5. Incubated for 2 hours.\n• 1. Added 720 μL of 0.05 M sodium arsenite solution (CAS #: 7784-46-5) to 10 mL of growth media for a final concentration of […] arsenite solution, mix well. • 2. Added 12.5 μL of arsenite solution to all wells of compounds treated plate intended for arsenite treatment. • 3. Incubated at 37° C. for 90 minutes.\n• Before beginning this part of the protocol: • Made 1×PBS by diluting 10× stock (10×, Phosphate buffered saline, Fisher #BP399— • 4) in sterile deionized water. • Diluted paraformaldehyde (16% Paraformaldehyde solution, Electron Microscopy Sciences #15710-S) to 4% in 1×PBS. • Diluted Hoechst stain (Life Technologies #H3570) 1:10,000 in 1×PBS (1 μL Hoechst per 10 mL 1×PBS). • Both solutions were protected from light. • 1) After compound treatment, aspirated media from cell plates and gently added in 50 μL of 4% paraformaldehyde for 10 min protected from light at room temperature. • 2) Aspirated paraformaldehyde solution and gently added 50 μL of 1:10,000 Hoechst solution to each well and incubated for 10 min protected from light at room temperature. • 3) Aspirated Hoechst solution and gently added 100 μL 1×PBS. Cover the plate with aluminum film (VWR #60941-126). • 4) Stored at 4° C. or used immediately for imaging on ThermoFisher CX7 imager.\nExemplary compounds of the disclosed herein were evaluated for efficacy for inhibitor activity of tau stress granules in the arsenite assay and quantified as drug concentration providing a 50% reduction (IC50) of granules per cell is shown in Table 4.\nIn Table 4 below, A indicates an IC50 (μM)<0.5 μM, B indicates an IC50 (μM) 0.5 μM to <1 μM, C indicates an IC50 (μM) 1 μM to <2 μM, and D indicates an IC50 (μM) 2 μM to <6 μM."}
{"smiles": "Cc1cc(-c2ccc(C3CCN(C)CC3)cc2OC(F)(F)F)sc1C(=O)N1CC[C@H](N)C1", "note": "[Compound 103, (S)-(3-aminopyrrolidin-1-yl)(3-methyl-5-(4-(1-methylpiperidin-4-yl)-2-(trifluoromethoxy)phenyl)thiophen-2-yl)methanone]", "pIC50": "5.22 to 5.70"}
{"smiles": "Cc1cc(-c2ccc(C3CCN(C)CC3)cn2)sc1C(=O)N1CC[C@H](N)C1", "note": "[Compound 104, (S)-(3-aminopyrrolidin-1-yl)(3-methyl-5-(5-(1-methylpiperidin-4-yl)pyridin-2-yl)thiophen-2-yl)methanone]", "pIC50": "5.70 to 6.00"}
{"smiles": "Cc1cc(-c2ccc(C3CCN(C)CC3)nc2)sc1C(=O)N1CC[C@H](N)C1", "note": "[Compound 108, (S)-(3-aminopyrrolidin-1-yl)(3-methyl-5-(6-(1-methylpiperidin-4-yl)pyridin-3-yl)thiophen-2-yl)methanone]", "pIC50": "6.00 to 6.30"}
{"smiles": "C=CCc1cc(-c2ccc(C3CCN(C(C)C)CC3)cc2)sc1C(=O)N1CC[C@H](N)C1", "note": "[Compound 109, (S)-(3-allyl-5-(4-(1-isopropylpiperidin-4-yl)phenyl)thiophen-2-yl)(3-aminopyrrolidin-1-yl)methanone]", "pIC50": "> 6.30"}
{"smiles": "CCCc1cc(-c2ccc(C3CCN(C(C)C)CC3)cc2)sc1C(=O)N1CC[C@H](N)C1", "note": "[Compound 110, (S)-(3-aminopyrrolidin-1-yl)(5-(4-(1-isopropylpiperidin-4-yl)phenyl)-3-propylthiophen-2-yl)methanone]", "pIC50": "5.70 to 6.00"}
{"smiles": "COc1cc(-c2cc(C)c(C(=O)N3CC[C@H](N)C3)s2)ccc1C1CCN(C)CC1", "note": "[Compound 111, (S)-(3-aminopyrrolidin-1-yl)(5-(3-methoxy-4-(1-methylpiperidin-4-yl)phenyl)-3-methylthiophen-2-yl)methanone]", "pIC50": "5.22 to 5.70"}
{"smiles": "Cc1cc(-c2ccc(C3CCN(C)CC3)c(OC(F)(F)F)c2)sc1C(=O)N1CC[C@H](N)C1", "note": "[Compound 112, (S)-(3-aminopyrrolidin-1-yl)(3-methyl-5-(4-(1-methylpiperidin-4-yl)-3-(trifluoromethoxy)phenyl)thiophen-2-yl)methanone]", "pIC50": "5.22 to 5.70"}
{"smiles": "C=Cc1cc(-c2ccc(C3CCN(C(C)C)CC3)cc2)sc1C(=O)N1CC[C@H](N)C1", "note": "[Compound 117, (S)-(3-aminopyrrolidin-1-yl)(5-(4-(1-isopropylpiperidin-4-yl)phenyl)-3-vinylthiophen-2-yl)methanone]", "pIC50": "5.70 to 6.00"}
{"smiles": "CCc1cc(-c2ccc(C3CCN(C(C)C)CC3)cc2)sc1C(=O)N1CC[C@H](N)C1", "note": "[Compound 118, (S)-(3-aminopyrrolidin-1-yl)(3-ethyl-5-(4-(1-isopropylpiperidin-4-yl)phenyl)thiophen-2-yl)methanone]", "pIC50": "5.70 to 6.00"}
{"smiles": "Cc1cc(-c2ccc(C3CCN(CC4CCCCO4)CC3)cc2)sc1C(=O)N1CC[C@H](N)C1", "note": "(stereo partly drawn) [Compound 119, ((S)-3-aminopyrrolidin-1-yl)(3-methyl-5-(4-(1-((tetrahydro-2H-pyran-2-yl)methyl)piperidin-4-yl)phenyl)thiophen-2-yl)methanone]", "pIC50": "6.00 to 6.30"}
{"smiles": "Cc1cc(-c2ccc(C3CCN(C)CC3)cc2Cl)sc1C(=O)N1CC[C@H](N)C1", "note": "[Compound 120, (S)-(3-aminopyrrolidin-1-yl)(5-(2-chloro-4-(1-methylpiperidin-4-yl)phenyl)-3-methylthiophen-2-yl)methanone]", "pIC50": "5.70 to 6.00"}
{"tested_on": "TDP-43 aggregation", "assay": "TDP-43 aggregation assay in SY5Y TDP-43WT cells (high content imaging)", "type": "cell-based", "details": "Homo sapiens, tetracycline induction 24 hrs, 1 hour compound pre-treatment, sodium arsenite 23 hrs, 8-point dose curve, percentage of cells with TDP-43 aggregates, read-out: IC50, Inhibition of TDP-43 Aggregation", "outline": "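Tetracycline-inducible eGFP-tagged wild-type human TDP-43 in SH-SY5Y cells, induced 24 h ([…]), compound pre-treated 1 h, then sodium arsenite […] for 23 h. Fixed cells imaged; percentage of DAPI-counted cells with aggregates gives IC50 from 8-point curves.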"}
{"smiles": "CC(C)N1CCC(c2ccc(-c3cc(Cl)c(C(=O)N4CC[C@H](N)C4)s3)cc2F)CC1", "note": "[Compound 284, (S)-(3-aminopyrrolidin-1-yl)(3-chloro-5-(3-fluoro-4-(1-isopropylpiperidin-4-yl)phenyl)thiophen-2-yl)methanone]", "pIC50": "> 6.30"}
{"smiles": "CCCc1cc(-c2ccc(C3CCN(C4CCOCC4)CC3)cc2)sc1C(=O)N1CC[C@H](N)C1", "note": "[Compound 285, (S)-(3-aminopyrrolidin-1-yl)(3-propyl-5-(4-(1-(tetrahydro-2H-pyran-4-yl)piperidin-4-yl)phenyl)thiophen-2-yl)methanone]", "pIC50": "5.70 to 6.00"}
{"smiles": "C=CCc1cc(-c2ccc(C3CCN(C4CCOCC4)CC3)cc2)sc1C(=O)N1CC[C@H](N)C1", "note": "[Compound 286]", "pIC50": "> 6.30"}
{"smiles": "Cc1cc(-c2ccc(C3CCN(C4CCOCC4)CC3)c(Cl)c2)sc1C(=O)N1CC[C@H](N)C1", "note": "[Compound 287, (S)-(3-aminopyrrolidin-1-yl)(5-(3-chloro-4-(1-(tetrahydro-2H-pyran-4-yl)piperidin-4-yl)phenyl)-3-methylthiophen-2-yl)methanone]", "pIC50": "> 6.30"}
{"smiles": "C#CCOCCN1CCC(c2ccc(-c3cc(C)c(C(=O)N4CC[C@H](N)C4)s3)cc2)CC1", "note": "[Compound 288, (S)-(3-amino-pyrrolidin-1-yl)(3-methyl-5-(4-(1-(2-(prop-2-yn-1-yloxy)ethyl)piperidin-4-yl)phenyl)thiophen-2-yl) methanone]", "pIC50": "> 6.30"}
{"smiles": "CCc1cc(-c2ccc(C3CCN(C4CCOCC4)CC3)cc2)sc1C(=O)N1CC[C@H](N)C1", "note": "[Compound 289, (S)-(3-aminopyrrolidin-1-yl)(3-ethyl-5-(4-(1-(tetrahydro-2H-pyran-4-yl)piperidin-4-yl)phenyl)thiophen-2-yl)methanone]", "pIC50": "> 6.30"}
{"smiles": "C#CCOCCOCCN1CCC(c2ccc(-c3cc(C)c(C(=O)N4CC[C@H](N)C4)s3)cc2)CC1", "note": "[Compound 290, (S)-(3-aminopyrrolidin-1-yl)(3-methyl-5-(4-(1-(2-(2-(prop-2-yn-1-yloxy)ethoxy)ethyl)piperidin-4-yl)phenyl)thiophen-2-yl)methanone]", "pIC50": "> 6.30"}
{"smiles": "CCc1cc(-c2ccc(C3CCN(C4CCOCC4)CC3)c(F)c2)sc1C(=O)N1CC[C@H](N)C1", "note": "[Compound 291, (S)-(3-aminopyrrolidin-1-yl)(3-ethyl-5-(3-fluoro-4-(1-(tetrahydro-2H-pyran-4-yl)piperidin-4-yl)phenyl)thiophen-2-yl)methanone]", "pIC50": "> 6.30"}
{"smiles": "COc1cc(-c2ccc(C3CCN(C4CCOCC4)CC3)c(F)c2)sc1C(=O)N1CC[C@H](N)C1", "note": "[Compound 292, (S)-(3-aminopyrrolidin-1-yl)(5-(3-fluoro-4-(1-(tetrahydro-2H-pyran-4-yl)piperidin-4-yl)phenyl)-3-methoxythiophen-2-yl)methanone]", "pIC50": "6.00 to 6.30"}
{"smiles": "COc1cc(-c2ccc(C3CCN(C4CCOCC4)CC3)cc2)sc1C(=O)N1CC[C@H](N)C1", "note": "[Compound 293]", "pIC50": "6.00 to 6.30"}
{"smiles": "N[C@H]1CCN(C(=O)c2sc(-c3ccc(C4CCN(C5CCOCC5)CC4)cc3)cc2Cl)C1", "note": "[Compound 294, (S)-(3-aminopyrrolidin-1-yl)(3-chloro-5-(4-(1-(tetrahydro-2H-pyran-4-yl)piperidin-4-yl)phenyl)thiophen-2-yl)methanone]", "pIC50": "> 6.30"}
{"smiles": "N[C@H]1CCN(C(=O)c2sc(-c3ccc(C4CCN(C5CCOCC5)CC4)c(F)c3)cc2Cl)C1", "note": "[Compound 295, (S)-(3-aminopyrrolidin-1-yl)(3-chloro-5-(3-fluoro-4-(1-(tetrahydro-2H-pyran-4-yl)piperidin-4-yl)phenyl)thiophen-2-yl)methanone]", "pIC50": "> 6.30"}
{"smiles": "Cc1cc(-c2ccc(C3CCN(C4CCOCC4)CC3)c(F)c2)sc1C(=O)N1CC[C@H](N)C1", "note": "[Compound 296, (S)-(3-aminopyrrolidin-1-yl)(5-(3-fluoro-4-(1-(tetrahydro-2H-pyran-4-yl)piperidin-4-yl)phenyl)-3-methylthiophen-2-yl)methanone]", "pIC50": "> 6.30"}
